Test system: Energy system protein genes
Test: DNA chip mRNA expression in yeast, energy system protein genes (Table 4)
Type: cell-based, Saccharomyces cerevisiae S288C
Method in brief: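 Whole-genome yeast DNA chip hybridization (65° C., >12 h) of Cy-labeled cDNA from S288C cells exposed 2 h at 25° C. to a sub-lethal toxicant dose in YPD; value is intensity relative to chemical-free control.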

Substance: Na2As [(1)]
- The level of expressed mRNA in the presence of chemical substance/The level of expressed mRNA in the absence of chemical substance (yeast gene YJR048W): 1.3
- The level of expressed mRNA in the presence of chemical substance/The level of expressed mRNA in the absence of chemical substance (yeast gene YJR121W, cells incubated two hours with the chemical substance): 1.2
- The level of expressed mRNA in the presence of chemical substance/The level of expressed mRNA in the absence of chemical substance (yeast gene YJR155W): 7.6
- The level of expressed mRNA in the presence of chemical substance/The level of expressed mRNA in the absence of chemical substance (yeast gene YKL016C, cells incubated two hours with the chemical substance): 1.5
- The level of expressed mRNA in the presence of chemical substance/The level of expressed mRNA in the absence of chemical substance (yeast gene YKL060C, cells incubated two hours with the chemical substance): 1.7
- The level of expressed mRNA in the presence of chemical substance/The level of expressed mRNA in the absence of chemical substance (yeast gene YKL141W, cells incubated two hours with the chemical substance): 1.6
- The level of expressed mRNA in the presence of chemical substance/The level of expressed mRNA in the absence of chemical substance (yeast gene YKL148C, cells incubated two hours with the chemical substance): 0.9
- The level of expressed mRNA in the presence of chemical substance/The level of expressed mRNA in the absence of chemical substance (yeast gene YKR009C, cells incubated two hours with the chemical substance): 1.0
- The level of expressed mRNA in the presence of chemical substance/The level of expressed mRNA in the absence of chemical substance (yeast gene YKR058W, cells incubated two hours with the chemical substance, 25° C., YPD medium): 1.3
- The level of expressed mRNA in the presence of chemical substance/The level of expressed mRNA in the absence of chemical substance (yeast gene YKR097W): 1.6
- The level of expressed mRNA in the presence of chemical substance/The level of expressed mRNA in the absence of chemical substance (yeast gene YLL041C, cells incubated two hours with the chemical substance): 1.5
- The level of expressed mRNA in the presence of chemical substance/The level of expressed mRNA in the absence of chemical substance (yeast gene YLR038C, cells incubated two hours with the chemical substance): 2.6
- The level of expressed mRNA in the presence of chemical substance/The level of expressed mRNA in the absence of chemical substance (yeast gene YLR044C, cells incubated two hours with the chemical substance): 0.8
- The level of expressed mRNA in the presence of chemical substance/The level of expressed mRNA in the absence of chemical substance (yeast gene YLR134W, cells incubated two hours with the chemical substance): 0.9
- The level of expressed mRNA in the presence of chemical substance/The level of expressed mRNA in the absence of chemical substance (yeast gene YLR258W, cells incubated two hours with the chemical substance): 1.7
- The level of expressed mRNA in the presence of chemical substance/The level of expressed mRNA in the absence of chemical substance (yeast gene YLR284C, cells incubated two hours with the chemical substance): 0.9
- The level of expressed mRNA in the presence of chemical substance/The level of expressed mRNA in the absence of chemical substance (yeast gene YLR295C, cells incubated two hours with the chemical substance, 25° C., YPD medium): 1.5
- The level of expressed mRNA in the presence of chemical substance/The level of expressed mRNA in the absence of chemical substance (yeast gene YLR304C, cells incubated two hours with the chemical substance): 0.7
- The level of expressed mRNA in the presence of chemical substance/The level of expressed mRNA in the absence of chemical substance (yeast gene YLR345W): 1.4
- The level of expressed mRNA in the presence of chemical substance/The level of expressed mRNA in the absence of chemical substance (yeast gene YLR354C, cells incubated two hours with the chemical substance): 1.2
- The level of expressed mRNA in the presence of chemical substance/The level of expressed mRNA in the absence of chemical substance (yeast gene YLR377C, cells incubated two hours with the chemical substance): 1.1
- The level of expressed mRNA in the presence of chemical substance/The level of expressed mRNA in the absence of chemical substance (yeast gene YLR395C, cells incubated two hours with the chemical substance): 1.8
- The level of expressed mRNA in the presence of chemical substance/The level of expressed mRNA in the absence of chemical substance (yeast gene YML087C): 1.8
- The level of expressed mRNA in the presence of chemical substance/The level of expressed mRNA in the absence of chemical substance (yeast gene YML120C, cells incubated two hours with the chemical substance): 1.1
- The level of expressed mRNA in the presence of chemical substance/The level of expressed mRNA in the absence of chemical substance (yeast gene YML129C, cells incubated two hours with the chemical substance): 1.1
- The level of expressed mRNA in the presence of chemical substance/The level of expressed mRNA in the absence of chemical substance (yeast gene YMR073C, cells incubated two hours with the chemical substance): 1.1
- The level of expressed mRNA in the presence of chemical substance/The level of expressed mRNA in the absence of chemical substance (yeast gene YMR118C): 1.3
- The level of expressed mRNA in the presence of chemical substance/The level of expressed mRNA in the absence of chemical substance (yeast gene YMR205C, cells incubated two hours with the chemical substance): 0.5
- The level of expressed mRNA in the presence of chemical substance/The level of expressed mRNA in the absence of chemical substance (yeast gene YMR261C, cells incubated two hours with the chemical substance): 0.8
- The level of expressed mRNA in the presence of chemical substance/The level of expressed mRNA in the absence of chemical substance (yeast gene YMR267W, cells incubated two hours with the chemical substance, 25° C., YPD medium): 0.8
- The level of expressed mRNA in the presence of chemical substance/The level of expressed mRNA in the absence of chemical substance (yeast gene YMR323W, cells incubated two hours with the chemical substance): 0.8
- The level of expressed mRNA in the presence of chemical substance/The level of expressed mRNA in the absence of chemical substance (yeast gene YNL071W): 0.9
- The level of expressed mRNA in the presence of chemical substance/The level of expressed mRNA in the absence of chemical substance (yeast gene YNL202W, cells incubated two hours with the chemical substance): 0.7
- The level of expressed mRNA in the presence of chemical substance/The level of expressed mRNA in the absence of chemical substance (yeast gene YNL241C): 1.3
- The level of expressed mRNA in the presence of chemical substance/The level of expressed mRNA in the absence of chemical substance (yeast gene YNL331C): 8.6
- The level of expressed mRNA in the presence of chemical substance/The level of expressed mRNA in the absence of chemical substance (yeast gene YOL086C, cells incubated two hours with the chemical substance): 1.1
- The level of expressed mRNA in the presence of chemical substance/The level of expressed mRNA in the absence of chemical substance (yeast gene YOL165C): 10.1
- The level of expressed mRNA in the presence of chemical substance/The level of expressed mRNA in the absence of chemical substance (yeast gene YOR142W, cells incubated two hours with the chemical substance): 1.3
- The level of expressed mRNA in the presence of chemical substance/The level of expressed mRNA in the absence of chemical substance (yeast gene YOR178C, cells incubated two hours with the chemical substance): 1.4
- The level of expressed mRNA in the presence of chemical substance/The level of expressed mRNA in the absence of chemical substance (yeast gene YOR388C, cells incubated two hours with the chemical substance): 1.0
- The level of expressed mRNA in the presence of chemical substance/The level of expressed mRNA in the absence of chemical substance (yeast gene YPL031C, cells incubated two hours with the chemical substance): 0.9
- The level of expressed mRNA in the presence of chemical substance/The level of expressed mRNA in the absence of chemical substance (yeast gene YPL061W, cells incubated two hours with the chemical substance): 0.4
- The level of expressed mRNA in the presence of chemical substance/The level of expressed mRNA in the absence of chemical substance (yeast gene YPL088W): 3.3
- The level of expressed mRNA in the presence of chemical substance/The level of expressed mRNA in the absence of chemical substance (yeast gene YPL171C): 15.2
- The level of expressed mRNA in the presence of chemical substance/The level of expressed mRNA in the absence of chemical substance (yeast gene YPL240C): 0.7
- The level of expressed mRNA in the presence of chemical substance/The level of expressed mRNA in the absence of chemical substance (yeast gene YPL262W, cells incubated two hours with the chemical substance): 1.1
- The level of expressed mRNA in the presence of chemical substance/The level of expressed mRNA in the absence of chemical substance (yeast gene YPL275W, cells incubated two hours with the chemical substance): 0.6
- The level of expressed mRNA in the presence of chemical substance/The level of expressed mRNA in the absence of chemical substance (yeast gene YPL276W, cells incubated two hours with the chemical substance): 1.2
- The level of expressed mRNA in the presence of chemical substance/The level of expressed mRNA in the absence of chemical substance (yeast gene YPR048W, cells incubated two hours with the chemical substance): 1.3
- The level of expressed mRNA in the presence of chemical substance/The level of expressed mRNA in the absence of chemical substance (yeast gene YPR184W, cells incubated two hours with the chemical substance): 1.2
